Data set [1] deals with MOG35-55 EAE in C57BL/6J mice. Nature of the data set: MOG35-55 EAE prevention (immunization) model. Type of data set: in vivo. Conditions: for minimal effective dose: oral. As to the method: Mice: Eight-weeks-old female C57BL/6J mice (15-20 g, Harlan laboratories, Rehovot, Israel) were used in all experiments. Animal maintenance and experimental protocols were performed in accordance with the Israeli Council for Animal Care guidelines and approved by Sheba IRB Animal Care Committee. Mice were kept in an SPF environment, maintained on a 12-h light/dark cycle at a constant environmental temperature with free access to food and water in their home cages.
Induction of MOG35-55 EAE (Prevention Model): EAE (Experimental Autoimmune Encephalomyelitis) was induced in 8 week old female C57BL/6J mice (15-20 g, Harlan laboratories, Rehovot, Israel) by immunization with an emulsion containing 300 μg of purified myelin oligodendrocyte glycoprotein (MOG) peptide ([…], corresponding to residues 35-55; obtained from (Difco, Detroit, Mich.) in saline and an equal volume of complete Freund's adjuvant containing 5 mg H37RA (Difco, Detroit, Mich.). 0.2 ml of the inoculum was injected subcutaneously. In addition, 300 ng of Bordetella pertusis toxin (Sigma) in 0.2 ml saline was injected intraperitoneally at the day of induction and two days later.
Oral gavages with the tested compound, at various concentrations ranging from 3 mg/kg-30 mg/kg in PBS or 50 mM NaH2PO4 (PH 4.5), or with vehicle only, were initiated at day of immunization. Mice were monitored daily for clinical signs of EAE, scored as: 1, flaccid tail; 2, forelimb weakness and poor righting ability; 3, hind limb paralysis; 4, quadriplegia; 5, moribund. Animal reaching a score of 4 were scarified using CO2.
Treatment was stopped once 30% of the vehicle-treated animals scored 1 on the EAE score. […]
The therapeutic index (LD50/ED50), which is also referred to herein as Safety Margin (SM), was then determined based on the EAE model. ED50 is the minimum effective dose observed for 50% of the tested animals.

The test system of data set [2] is pre-rRNA. Nature of the data set: Q-RT-PCR of pre-rRNA in splenocytes of treated EAE mice. The data set is classed as in vivo. The following applies: 12.5 mg/Kg, 17 days following immunization. As to the method: RNA Extraction: For in vivo experiments spleens from EAE mice were isolated at day 17 post immunization and splenocytes were re-stimulated for 72 h hours in the presence of 5.0 μg/ml MOG35-55. For in-vitro experiments spleens from intact mice were isolated and splenocytes were stimulated with for 72 h in the presence of PHA. RNA was extracted from splenocytes of both the in-vitro and in-vivo experiments by robotic ABI PRISM, Applied biosystem 6100 Nucleic Acid Prep Station. To avoid genomic DNA contamination samples were treated with DNase I (Roche). The quality and integrity of the total RNA preparation was confirmed using a NanoDrop 2000c Spectrophotometer (Thermo Scientific).
Quantitative RT-PCR of Pre-rRNA: Complementary DNA was obtained from the extracted RNA by the High capacity cDNA reverse transcription kit (Applied Biosystems, CA, USA) following manufacturer's instructions. To confirm the role of POL1 pathway suppression by POL1-Inhibitors, the expression level of pre-rRNA transcript, a key gene of the RNA polymerase I pathway, was evaluated by Q-RT-PCR (n=3 per group). All PCR reactions were performed on a Light Cycler 480 instrument (Roche Diagnostic). The pre-rRNA, specific primers used were Forward: […] (SEQ ID NO: 69) and Reverse: […] (SEQ ID NO: 70) with a quantification probe (Roche, Probe ID #1, cat. no. 04684974001). […]

For data set [3], the system named is naive mice. Nature of the data set: Single dose oral toxicity in naive mice. The data set is classed as in vivo. Conditions: single oral dose 3 mg/kg to 500.0 mg/kg, 24 h. On the procedure:
The toxicity of oral administration of a single dose of Compound 10 was tested in naïve mice using range from 3 mg/kg to 500.0 mg/kg.

Data set [4] has as its system Pol I. Nature of the data set: Cell-free Pol I transcription assay. Type of data set: biochemical, human. The following applies: 200 nM. As to the method:
Cell-free Pol I transcription assay was performed according to Drygin et al. (2010). Briefly, a reaction mixture consisting of 8 units of HeLa scribe nuclear extract (Promega) in transcription buffer and MgCl2 (4 mM) was combined with POL1-Inhibitor (200 nM) and […] a-amanitin (Sigma) for 20 minutes at ambient temperature. Following, 10 ng DNA template (GENEWIZ, Inc.; http://www(dot)genewiz(dot)com(dot)cn) corresponding to the (−160/+350) region on human rDNA was added and the reaction was incubated for 5 minutes at ambient temperature. Transcription was initiated by adding rNTPs mix to a final concentration of 1 mM and the reaction was incubated for 1 hour at 30° C. Afterward, DNase I (Ambion kit) was added and the reaction was further incubated for 25 minutes at 37° C. DNase activity was terminated with adding an inactivation solution according the manufacturer's protocol. The samples were then subjected for RNA isolation (following the same procedure described in Example 3 hereinabove). Pellets of RNA were re-suspended in DEPC-treated double distilled water and subjected for reverse transcription by a High capacity kit (Applied Biosystems). The resultant transcripts were analyzed by qRT-PCR in a Light cycler 480 system using primer pairs (Sigma) and probe for real-time PCR. […]

In data set [5] the test system is splenocytes. Nature of the data set: Viability, proliferation and apoptosis of MOG 35-55 incubated splenocytes from immunized mice (XTT, BrdU, flow cytometry). The data set is classed as cell-based. Conditions: splenocytes 14 days post immunization, 72 h MOG 35-55, vs vehicle. As to the method: In addition, viability, proliferation and apoptosis of splenocytes isolated from mice 14 days post immunization and incubated for 72 h with MOG 35-55 were assessed by XTT, BrdU and flow cytometry (Annexin V and propidium iodide double staining) assays, respectively.

What is called ED50 is the dose that gives a 50% effect, or the effect in half of the subjects. The low end stands for greater potency, the high end for weaker potency. Broadly, the minimal effective dose is the smallest amount tested that counted as effective. High values mean weaker potency, low ones greater potency.

`Cc1cnc(CNC(=O)c2/c(=N/c3ccccc3)c3ccc(N4CCCN(C)CC4)nc3n3c2sc2ccccc23)cn1` [Compound 10, (E)-2-(4-methyl-1,4-diazepan-1-yl)-N-((5-methylpyrazin-2-yl)methyl)-5-(phenylimino)-5H-benzo[4,5]thiazolo[3,2-a][1,8]naphthyridine-6-carboxamide] displayed a disease incidence in data set [1] (3 mg/kg, alternate days) of 98%. For the same compound, the “delay of disease development” value in data set [1] (12.0 mg/kg oral, alternate days) is on record as 10 days. Further, the EAE severity result in data set [1] (12.0 mg/kg oral, alternate days, 23 day post immunization) was “suppressed EAE severity”. Besides, in data set [1] (12.5 mg/Kg oral, 15 mice), the “EAE onset (dpi)” value was 19.2 ± 0.6 dpi, the Max clinical score was 1.2 ± 0.4 and the “Peak of EAE (dpi)” value is reported as 20.4 ± 0.7 dpi. Moreover, the Cumulative disease score in data set [1] (12.5 mg/Kg oral, sum of scores day 0 to day 31) came to 7.2 ± 1.9. Also, in data set [1] (12.5 mg/Kg, 15 mice per group), the “additional days free of disease compared to vehicle” value came out at 10 days and the “delay of peak of disease compared to vehicle” value was found to be 6 days. Also, the EAE inhibition result in data set [1] (12.5 mg/kg daily) is reported as “complete inhibition of EAE”. In addition, in data set [1] (12.5 mg/kg, alternate days), the disease incidence was determined as 22%. In data set [1] (30 mg/kg, alternate days), the disease development entry is “completely inhibited disease development”. In data set [1] (Mus musculus), this compound gave an ED50 of 3 mg/kg. This compound gave a minimal effective dose in data set [1] (alternate days) of 6 mg/kg. The minimal effective dose in data set [1] (daily administration) turned out to be 3.0 mg/kg. Further, the “decrease in pre-rRNA mRNA levels compared to vehicle” value in data set [2] is 5.9 folds. In addition, in data set [3], the behavioral changes entry was “No behavioral changes” and the survival result is recorded as “No effect on survival”. For the same compound, in data set [4], the “inhibition of Pol I transcription from the pre-rRNA promoter” value is reported as “about 40%”. Further, in data set [5], the “apoptosis (Annexin V and propidium iodide)” value is given as “induced apoptosis in CD4+ lymphocytes”; the “cell proliferation (BrdU)” value is reported as “suppressed cell proliferation”; the “viability (XTT)” value is reported as “reduced viability”.
